Series [1] addresses T1, CB1 (Homo sapiens, UniProt P21554). As to the kind of experiment: CB1 β-arrestin recruitment agonist assay (Eurofin's). Type of series: cell-based. The following applies: agonist mode; for pEC50: read-out: RC50 (EC50), agonist, CB1.
For series [2], the target named is T1, CB1. As to the kind of experiment: CB1 β-arrestin recruitment antagonist assay (Eurofin's). The following applies: antagonist mode, 0.016 μM CP55940; for pIC50: β-arrestin recruitment, read-out: RC50 (IC50), antagonist, CB1. It is filed as cell-based. The text has this: (§1) For antagonist assays, data was normalized to the maximal and minimal response observed in the presence of EC80 ligand and vehicle.

Series [3] deals with T2, CB2 (Homo sapiens, UniProt P34972). As to the kind of experiment: CB2 β-arrestin recruitment agonist assay (Eurofin's). It is filed as cell-based. To be noted: for Emax / pEC50: β-arrestin recruitment, agonist mode; for pEC50: read-out: RC50 (EC50), agonist, CB2.
The target of series [4] is T2, CB2. As to the kind of experiment: CB2 β-arrestin recruitment antagonist assay (Eurofin's). Type of series: cell-based. The following applies: antagonist mode, 0.0053 μM CP55940; for pIC50: β-arrestin recruitment, read-out: RC50 (IC50), antagonist, CB2.
From the text: as §1

The subject of another series is TNF-α release. To be noted: at 30 min, LPS-induced model; cited from earlier work.
The conditions of series [5]: cited from earlier work.
The mark [6] stands for this setting: normalized to response with EC80 ligand and vehicle.

pEC50, pIC50: −log10 of the molar value.

T2 sequence (P34972 whole entry): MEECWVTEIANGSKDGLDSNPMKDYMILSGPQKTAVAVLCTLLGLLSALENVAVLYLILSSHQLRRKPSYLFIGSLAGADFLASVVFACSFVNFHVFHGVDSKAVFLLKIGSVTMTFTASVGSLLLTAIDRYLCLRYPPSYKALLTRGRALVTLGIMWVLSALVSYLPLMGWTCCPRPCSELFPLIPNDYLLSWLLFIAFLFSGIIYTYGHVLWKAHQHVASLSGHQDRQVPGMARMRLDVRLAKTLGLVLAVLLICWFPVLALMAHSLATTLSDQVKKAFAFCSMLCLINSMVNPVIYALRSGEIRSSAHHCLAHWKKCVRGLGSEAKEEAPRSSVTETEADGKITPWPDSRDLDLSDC
T1 sequence (P21554 whole entry): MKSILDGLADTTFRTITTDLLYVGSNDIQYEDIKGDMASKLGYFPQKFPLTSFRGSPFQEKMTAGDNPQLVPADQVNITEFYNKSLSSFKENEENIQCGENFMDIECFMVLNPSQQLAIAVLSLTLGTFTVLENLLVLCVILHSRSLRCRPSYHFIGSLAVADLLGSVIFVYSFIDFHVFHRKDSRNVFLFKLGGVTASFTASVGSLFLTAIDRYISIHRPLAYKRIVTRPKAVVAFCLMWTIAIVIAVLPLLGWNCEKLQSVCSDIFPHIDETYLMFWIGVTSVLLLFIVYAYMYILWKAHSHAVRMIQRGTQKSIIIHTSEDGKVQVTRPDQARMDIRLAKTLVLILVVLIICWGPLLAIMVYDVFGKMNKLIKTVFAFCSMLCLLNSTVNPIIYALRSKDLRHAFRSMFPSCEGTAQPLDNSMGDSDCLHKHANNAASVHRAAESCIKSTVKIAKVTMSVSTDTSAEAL

For `C=C(C)[C@H]1CCC(C)=C[C@@H]1c1c(O)cc([Si](C)(C)CCCCCC)cc1O` [AAC-01], the Emax was 64.8% at CB1 [1], 86.4% on CB1 [2] (setting [6]), 70% on CB2 [3] and 69.7% at CB2 [4] (setting [6]). Also, the values for the pEC50 on CB1 [1] and at CB2 [3] were 7.48 and 8.38, respectively. Moreover, the results for the negative logarithm of the IC50 (pIC50) at CB1 [2] and at CB2 [4] were 5.69 and 5.73, respectively.
As to `C=C(C)[C@H]1CCC(C)=C[C@@H]1c1c(O)cc(CC[Si](C)(C)CCCC)cc1O` [AAC-02], the values for the pEC50 at CB1 [1] and on CB2 [3] were less than 5.00 and 7.74, respectively. For the same compound, the Emax on CB1 [2] (setting [6]) came out at 71.1%; on CB2 [3], 50.3%. For the same compound, the negative logarithm of the IC50 (pIC50) on CB1 [2] is 5.65; on CB2 [4], less than 5.00. For the same compound, the “selectivity for CB2 vs CB1” value at CB2 [3] (agonist EC50 CB1 vs CB2) was determined as 500 ×.
For `Cc1c(C(=O)NN2CCOCC2)nn(-c2ccc(Cl)cc2Cl)c1-c1ccc(I)cc1` [AM281, reference compound], at CB1 [2] (setting [6]), the “Emax, antagonist, CB1” value is 106.6%. Also, the pIC50 at CB1 [2] was 7.98.
For the compound `Cc1ccc(-n2nc(C(C)(C)C)cc2NC(=O)Nc2ccc(OCCN3CCOCC3)c3ccccc23)cc1` [BIRB-796], in the series with TNF-α release, the TNF-α suppression is given as 41%.
`CCCCCCC(C)(C)c1ccc([C@@H]2C[C@H](O)CC[C@H]2CCCO)c(O)c1` [CP55,940, reference compound]: on CB2 [3], the Emax was 101%.
For `O=C(O)[C@@H]1CCCN1C(=O)OCC1c2ccccc2-c2ccccc21` [Fmoc-Pro], the log partition coefficient (Log P) in series [5] is 0.094.
In the case of `C[Si]1(C)CC(C(=O)O)N(C(=O)OCC2c3ccccc3-c3ccccc32)C1` (stereo not drawn) [Fmoc-Sip], in series [5], the “Log P” value was 1.3.
Turning to `CC(C)(C)c1ccccc1` [t-butylbenzene], in series [5], the “Log P” value was 4.0.
As to `C[Si](C)(C)c1ccccc1` [trimethylsilyl-benzene], the “Log P” value in series [5] is reported as 4.7.
Turning to SR 144528 [reference compound], the “Emax, antagonist, CB2” value on CB2 [4] (setting [6]) is 101.6%.

These data come from patent publication US20250092069A1, “SILYL-LIPID CA[…] ENHANCED BIOLOGICAL ACTIVITY” (The Regents of the University of California, priority 2022, published 2025).
